Several values for one entry are separate records, joined by “and”; a condition that tells them apart may be missing. Equal entries are not always repeated. Inconclusive results and toxic doses are left out.
Tested on: CD2F1 mice, L1210 leukemia ip, survival T/C
Assay: NCI In Vivo Anticancer Drug Screen. Data for tumor model L1210 Leukemia (intraperitoneal) in CD2F1 (CDF1) mice
Conditions: higher = longer survival
Procedure, shortened: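 Vehicle-treated tumor-bearing mice served as controls (C) for compound-treated mice (T). Reported figure is T divided by C.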

[1] = endpoint: mean survival time, dose: 100.0 mg/kg/injection, schedule: Q04DX003 (ip), vehicle: saline with Tween-80
[2] = endpoint: mean survival time, dose: 200.0 mg/kg/injection, schedule: Q04DX003 (ip), vehicle: saline with Tween-80
[3] = endpoint: mean survival time, dose: 400.0 mg/kg/injection, schedule: Q04DX003 (ip), vehicle: saline with Tween-80
[4] = endpoint: mean survival time, dose: 100.0 mg/kg/injection, schedule: Q01DX001 (ip), vehicle: saline with Tween-80
[5] = endpoint: mean survival time, dose: 200.0 mg/kg/injection, schedule: Q01DX001 (ip), vehicle: saline with Tween-80
[6] = endpoint: mean survival time, dose: 400.0 mg/kg/injection, schedule: Q01DX001 (ip), vehicle: saline with Tween-80
[7] = endpoint: mean survival time, dose: 100.0 mg/kg/injection, schedule: Q01DX009 (ip), vehicle: saline with Tween-80
[8] = endpoint: mean survival time, dose: 200.0 mg/kg/injection, schedule: Q01DX009 (ip), vehicle: saline with Tween-80
[9] = endpoint: mean survival time, dose: 400.0 mg/kg/injection, schedule: Q01DX009 (ip), vehicle: saline with Tween-80
[10] = endpoint: mean survival time, dose: 100.0 mg/kg/injection, schedule: Q04DX002 (ip), vehicle: saline with Tween-80
[11] = endpoint: mean survival time, dose: 200.0 mg/kg/injection, schedule: Q04DX002 (ip), vehicle: saline with Tween-80
[12] = endpoint: mean survival time, dose: 50.0 mg/kg/injection, schedule: Q01DX009 (ip), vehicle: saline with Tween-80
[13] = endpoint: mean survival time, dose: 25.0 mg/kg/injection, schedule: Q01DX009 (ip), vehicle: saline with Tween-80
[14] = endpoint: mean survival time, dose: 12.5 mg/kg/injection, schedule: Q04DX002 (ip), vehicle: saline with Tween-80
[15] = endpoint: mean survival time, dose: 25.0 mg/kg/injection, schedule: Q04DX002 (ip), vehicle: saline with Tween-80
[16] = endpoint: mean survival time, dose: 50.0 mg/kg/injection, schedule: Q04DX002 (ip), vehicle: saline with Tween-80
[17] = endpoint: mean survival time, dose: 400.0 mg/kg/injection, schedule: Q04DX002 (ip), vehicle: saline with Tween-80

CC(=O)OC1CCC2(C)C(C1)C(=O)OC1C2CCC2(C)C(C(C)CCCC(C)C)CCC12 (stereo not given)
T/C [1]: 94 % of control
T/C [2]: 94 % of control
T/C [3]: 94 % of control

CC(=O)N(C)c1ccc(S(=O)(=O)Cl)cc1
T/C [4]: 100 % of control
T/C [5]: 105 % of control
T/C [6]: 93 % of control

Cc1ccc(C2=CSc3ccccc3N2)cc1
T/C (endpoint: mean survival time, dose: 100.0 mg/kg/injection, schedule: Q04DX002 (ip), vehicle: other): 104 % of control
T/C (endpoint: mean survival time, dose: 200.0 mg/kg/injection, schedule: Q04DX002 (ip), vehicle: other): 104 % of control

CCCNC(=O)NO
T/C (endpoint: mean survival time, dose: 4.0 mg/kg/injection, schedule: Q03HX024 (ip), vehicle: other): 97 % of control
T/C (endpoint: mean survival time, dose: 8.0 mg/kg/injection, schedule: Q03HX024 (ip), vehicle: other): 97 % of control
T/C (endpoint: mean survival time, dose: 16.0 mg/kg/injection, schedule: Q03HX024 (ip), vehicle: other): 96 % of control
T/C (endpoint: mean survival time, dose: 32.0 mg/kg/injection, schedule: Q03HX024 (ip), vehicle: other): 98 % of control
T/C (endpoint: mean survival time, dose: 64.0 mg/kg/injection, schedule: Q03HX024 (ip), vehicle: other): 97 % of control

CCN(CC)CCCN(CC(=O)O)CC(=O)O
T/C (endpoint: mean survival time, dose: 100.0 mg/kg/injection, schedule: Q01DX001 (ip), vehicle: saline): 103 % of control

O=Cc1cc(=O)[nH]c2ccccc12
T/C [1]: 96 % of control
T/C [2]: 98 % of control
T/C [3]: 100 % of control

CCOC(=O)CC1OCCO1
T/C [1]: 98 % of control
T/C [2]: 103 % of control
T/C [3]: 101 % of control

O=[N+]([O-])c1cccc(/C=C/C2(CCl)OCCO2)c1
T/C [4]: 101 % of control
T/C [5]: 116 % of control

CCOC(=O)CC1(O)CCCCC1
T/C [7]: 101 % of control
T/C [1]: 100 % of control
T/C [8]: 101 % of control
T/C [2]: 101 % of control
T/C [9]: 100 % of control
T/C [3]: 97 % of control

COC(=O)c1ccc(C2CCC(OC(c3ccccc3)c3ccccc3)CC2)cc1 (stereo not given)
T/C [2]: 89 % of control
T/C [3]: 91 % of control

NCC[Se][Se]CCN
T/C (endpoint: median survival time, dose: 1.56 mg/kg/injection, schedule: Q01DX009 (ip), vehicle: suspension in saline): 98 % of control
T/C (endpoint: median survival time, dose: 3.13 mg/kg/injection, schedule: Q01DX009 (ip), vehicle: suspension in saline): 105 % of control
T/C (endpoint: median survival time, dose: 6.25 mg/kg/injection, schedule: Q01DX009 (ip), vehicle: suspension in saline): 108 % of control

CS(C)(O)NC(N)=O
T/C (endpoint: median survival time, dose: 25.0 mg/kg/injection, schedule: Q01DX009 (ip), vehicle: water): 93 % of control
T/C (endpoint: median survival time, dose: 50.0 mg/kg/injection, schedule: Q01DX009 (ip), vehicle: water): 103 % of control
T/C (endpoint: median survival time, dose: 100.0 mg/kg/injection, schedule: Q01DX009 (ip), vehicle: water): 102 % of control
T/C (endpoint: median survival time, dose: 200.0 mg/kg/injection, schedule: Q01DX009 (ip), vehicle: water): 91 % of control
T/C (endpoint: median survival time, dose: 400.0 mg/kg/injection, schedule: Q01DX009 (ip), vehicle: water): 101 % of control

CCOC(=O)C(c1ccccc1)c1ccccc1
T/C [1]: 102 % of control
T/C [2]: 111 % of control
T/C [3]: 103 % of control

CCCCCCCCCCCCCCCCCCN (tested in a mixture with another compound)
T/C [10]: 98 % of control
T/C [11]: 98 % of control

Cc1ccc(/C=N/NC(=O)CNC(=O)Nc2cccc([N+](=O)[O-])c2)cc1
T/C [12]: 92 % of control
T/C [7]: 88 % of control

CCCC/C=C/C(O)CC (stereo not given)
T/C [1]: 98 % of control
T/C [2]: 102 % of control
T/C [3]: 96 % of control

O=C1CCc2ccccc2C1C(=O)CC(O)(c1ccccc1)c1ccccc1 (stereo not given)
T/C [1]: 100 % of control
T/C [2]: 102 % of control

CN(C)CCC(=O)c1cccc2ccccc12
T/C [13]: 98 % of control
T/C [12]: 96 % of control
T/C [4]: 92 % of control
T/C [7]: 96 % of control

COc1ccc(/C=C/c2ccc3ccccc3n2)c(OC)c1
T/C [7]: 96 % of control
T/C [1]: 96 % of control
T/C [8]: 102 % of control
T/C [2]: 96 % of control
T/C [9]: 95 % of control
T/C [3]: 96 % of control

CC[C@]1(O)C[C@H](OC2CC(N(C)C)C(OC3CC(O)C(O)C(C)O3)C(C)O2)c2c(cc3c(c2O)C(=O)c2c(O)ccc(O)c2C3=O)[C@H]1C(=O)OC (stereo not given in full)
T/C (endpoint: mean survival time, dose: 0.12 mg/kg/injection, schedule: Q01DX009 (ip), vehicle: Klucel (hydroxypropylcellulose) (HPC)): 114 % of control and 109 % of control and 110 % of control

CCSCCNC1=C(C)C(=O)C2=C(C1=O)[C@H](COC(N)=O)[C@]1(OC)[C@@H]3N[C@@H]3CN21
T/C (endpoint: mean survival time, dose: 6.0 mg/kg/injection, schedule: Q01DX001 (ip), vehicle: distilled water + Tween-80): 121 % of control
T/C (endpoint: mean survival time, dose: 24.0 mg/kg/injection, schedule: Q01DX001 (ip), vehicle: distilled water + Tween-80): 155 % of control

O=[N+]([O-])c1ccc2ncccc2c1
T/C (endpoint: mean survival time, dose: 25.0 mg/kg/injection, schedule: Q01DX009 (ip), vehicle: other): 101 % of control
T/C (endpoint: mean survival time, dose: 50.0 mg/kg/injection, schedule: Q01DX009 (ip), vehicle: other): 105 % of control
T/C (endpoint: mean survival time, dose: 100.0 mg/kg/injection, schedule: Q01DX009 (ip), vehicle: other): 104 % of control

O=C1CCCN1c1ccc([N+](=O)[O-])cc1
T/C [14]: 102 % of control
T/C [15]: 102 % of control
T/C [16]: 102 % of control
T/C [4]: 110 % of control
T/C [7]: 98 % of control
T/C [5]: 104 % of control
T/C [8]: 98 % of control
T/C [6]: 101 % of control
T/C [9]: 106 % of control

CCOC(CN(N=O)c1ccccc1C(C)C)OCC
T/C [7]: 98 % of control
T/C [1]: 103 % of control
T/C [8]: 93 % of control
T/C [2]: 98 % of control
T/C [3]: 97 % of control

N#CCc1ccc2c(c1)Sc1ccccc1O2
T/C (endpoint: mean survival time, dose: 100.0 mg/kg/injection, schedule: Q04DX003 (ip), vehicle: Klucel (hydroxypropylcellulose) (HPC)): 108 % of control
T/C (endpoint: mean survival time, dose: 200.0 mg/kg/injection, schedule: Q04DX003 (ip), vehicle: Klucel (hydroxypropylcellulose) (HPC)): 98 % of control
T/C (endpoint: mean survival time, dose: 400.0 mg/kg/injection, schedule: Q04DX003 (ip), vehicle: Klucel (hydroxypropylcellulose) (HPC)): 100 % of control

NC(=S)N/N=C/c1ccc(C(F)(F)F)cn1
T/C [14]: 100 % of control and 102 % of control
T/C (endpoint: mean survival time, dose: 13.3 mg/kg/injection, schedule: Q01DX001 (ip), vehicle: saline with Tween-80): 96 % of control
T/C (endpoint: mean survival time, dose: 13.3 mg/kg/injection, schedule: Q01DX009 (ip), vehicle: Klucel (hydroxypropylcellulose) (HPC)): 100 % of control
T/C (endpoint: mean survival time, dose: 13.3 mg/kg/injection, schedule: Q01DX009 (ip), vehicle: saline with Tween-80): 122 % of control
T/C (endpoint: mean survival time, dose: 20.0 mg/kg/injection, schedule: Q01DX001 (ip), vehicle: saline with Tween-80): 100 % of control
T/C (endpoint: mean survival time, dose: 20.0 mg/kg/injection, schedule: Q01DX009 (ip), vehicle: Klucel (hydroxypropylcellulose) (HPC)): 96 % of control
T/C (endpoint: mean survival time, dose: 20.0 mg/kg/injection, schedule: Q01DX009 (ip), vehicle: saline with Tween-80): 171 % of control
T/C [15]: 105 % of control and 107 % of control
T/C (endpoint: mean survival time, dose: 30.0 mg/kg/injection, schedule: Q01DX001 (ip), vehicle: saline with Tween-80): 107 % of control
T/C (endpoint: mean survival time, dose: 30.0 mg/kg/injection, schedule: Q01DX009 (ip), vehicle: Klucel (hydroxypropylcellulose) (HPC)): 106 % of control
T/C (endpoint: mean survival time, dose: 45.0 mg/kg/injection, schedule: Q01DX001 (ip), vehicle: saline with Tween-80): 108 % of control
T/C (endpoint: mean survival time, dose: 45.0 mg/kg/injection, schedule: Q01DX009 (ip), vehicle: saline with Tween-80): 102 % of control
T/C [16]: 105 % of control
T/C (endpoint: mean survival time, dose: 67.5 mg/kg/injection, schedule: Q01DX001 (ip), vehicle: saline with Tween-80): 111 % of control

CC(=O)CN(C(C)=O)c1ccccc1
T/C [10]: 105 % of control
T/C [11]: 97 % of control
T/C [17]: 109 % of control

CCCOC(=O)COc1ccc(F)cc1F
T/C [15]: 103 % of control
T/C [16]: 100 % of control
T/C [10]: 92 % of control and 95 % of control
T/C [17]: 95 % of control

COc1ccc2c(c1)C/C(=N\O)C2=O
T/C [13]: 93 % of control
T/C (endpoint: mean survival time, dose: 25.0 mg/kg/injection, schedule: Q04DX003 (ip), vehicle: saline with Tween-80): 95 % of control
T/C [12]: 97 % of control
T/C (endpoint: mean survival time, dose: 50.0 mg/kg/injection, schedule: Q04DX003 (ip), vehicle: saline with Tween-80): 93 % of control
T/C [1]: 91 % of control

Clc1nnc(Nc2ccccc2)c2ccccc12
T/C (endpoint: mean survival time, dose: 100.0 mg/kg/injection, schedule: Q04DX003 (ip), vehicle: other): 94 % of control
T/C (endpoint: mean survival time, dose: 200.0 mg/kg/injection, schedule: Q04DX003 (ip), vehicle: other): 88 % of control
T/C (endpoint: mean survival time, dose: 400.0 mg/kg/injection, schedule: Q04DX003 (ip), vehicle: other): 88 % of control

O=C(O)CCC(NC(=O)OCc1ccccc1)C(=O)O (stereo not given)
T/C [7]: 98 % of control
T/C [8]: 94 % of control
T/C [9]: 96 % of control
